The source of these data is ChEMBL document CHEMBL1122193, “Design of potent and selective antagonists of the vasopressor responses to arginine-vasopressin” (J Med Chem, 1982).

The species named for assay [1] is Rattus norvegicus. Kind of assay: Effective dose for anti-vasopressor potency to reduce the response to 2x units of agonist to equal the response to 1x units. The assay is classed as functional.
Assay [2] deals with Rattus norvegicus. Kind of assay: Antidiuretic activity in intravenous antidiuretic assay in rats under ethanol anesthesia. The assay is classed as functional, Urine.
For assay [3], the species on record is Rattus norvegicus. Kind of assay: In vitro anti-oxytocic potency was recorded in presence of 0.5 mM Mg2+ in rat uteri. The format is functional. The conditions noted are these: read-out: pA2 (converted).
For assay [4], the species on record is Rattus norvegicus. As to the kind of experiment: In vitro anti-oxytocic potency was recorded in absence of Mg2+ in rat uteri. The assay is classed as functional. The conditions noted are these: read-out: pA2 (converted).
In assay [5] the test system is Rattus norvegicus. Kind of assay: Compound evaluated in vivo and negative logarithm of effective dose divided by estimated volume of distribution (67 mL/kg) determined. The conditions noted are these: read-out: pA2 (converted). The format is ADME, organism-based.

Residues, ends and D or L forms follow the SMILES beside them.

With `CC(C)[C@@H]1NC(=O)[C@H](Cc2ccccc2)NC(=O)[C@H](Cc2ccc(O)cc2)NC(=O)CC2(CCCCC2)SSC[C@@H](C(=O)N2CCC[C@H]2C(=O)N[C@H](CCCN=C(N)N)C(=O)NCC(N)=O)NC(=O)[C@H](CC(N)=O)NC1=O` (HELM PEPTIDE1{Y.F.V.N.C.P.[dR].G.[am]}|CHEM1{[O=C(CC1(S[*:2])CCCCC1)[*:1]]}$PEPTIDE1,CHEM1,1:R1-1:R1|PEPTIDE1,CHEM1,5:R3-1:R2$$$V2.0) [listing 1 of 2 here], the Effective dose in assay [1] is 1.5 nM/kg.

`CC(C)[C@@H]1NC(=O)[C@H](Cc2ccccc2)NC(=O)[C@H](Cc2ccc(O)cc2)NC(=O)CC(C)(C)SSC[C@@H](C(=O)N2CCC[C@H]2C(=O)N[C@H](CCCN=C(N)N)C(=O)NCC(N)=O)NC(=O)[C@H](CC(N)=O)NC1=O` [listing 1 of 2 here] gave an Effective dose in assay [1] of 1.1 nM/kg. In assay [2], this molecule returned an Antidiuretic activity of 123 U/mg.

In the case of `NC(=O)CC[C@@H]1NC(=O)[C@H](Cc2ccccc2)NC(=O)[C@H](Cc2ccc(O)cc2)NC(=O)CC2(CCCCC2)SSC[C@@H](C(=O)N2CCC[C@H]2C(=O)N[C@@H](CCCN=C(N)N)C(=O)NCC(N)=O)NC(=O)[C@H](CC(N)=O)NC1=O` [listing 1 of 2 here], the values for the Kb in assay [3] and in assay [4] were 53.7 nM and 47.9 nM, respectively.

With `CCC1(CC)CC(=O)N[C@@H](Cc2ccc(O)cc2)C(=O)N[C@H](Cc2ccccc2)C(=O)N[C@@H](C(C)C)C(=O)N[C@H](CC(N)=O)C(=O)N[C@@H](C(=O)N2CCC[C@H]2C(=O)N[C@@H](CCCN=C(N)N)C(=O)NCC(N)=O)CSS1`, the Kb in assay [3] is 21.9 nM; in assay [5], 5.13 nM; in assay [4], 47.9 nM. Moreover, the Effective dose in assay [1] came out at 0.38 nM/kg. Further, in assay [2], the Antidiuretic activity is 1.5 U/mg.

For `NC(=O)CC[C@@H]1NC(=O)[C@H](Cc2ccccc2)NC(=O)[C@H](Cc2ccc(O)cc2)NC(=O)CC2(CCCCC2)SSC[C@@H](C(=O)N2CCC[C@H]2C(=O)N[C@H](CCCN=C(N)N)C(=O)NCC(N)=O)NC(=O)[C@H](CC(N)=O)NC1=O` [listing 1 of 2 here], the Effective dose in assay [1] was 0.2 nM/kg. In assay [2], this molecule yielded an Antidiuretic activity of 0.31 U/mg.

In assay [1], `CC(C)[C@@H]1NC(=O)[C@H](Cc2ccccc2)NC(=O)[C@H](Cc2ccc(O)cc2)NC(=O)CC2(CCCCC2)SSC[C@@H](C(=O)N2CCC[C@H]2C(=O)N[C@@H](CCCN=C(N)N)C(=O)NCC(N)=O)NC(=O)[C@H](CC(N)=O)NC1=O` (HELM PEPTIDE1{Y.F.V.N.C.P.R.G.[am]}|CHEM1{[O=C(CC1(S[*:2])CCCCC1)[*:1]]}$PEPTIDE1,CHEM1,1:R1-1:R1|PEPTIDE1,CHEM1,5:R3-1:R2$$$V2.0) displayed an Effective dose of 0.76 nM/kg. For the same molecule, the Antidiuretic activity in assay [2] was found to be 0.32 U/mg.

With `CC1(C)CC(=O)N[C@@H](Cc2ccc(O)cc2)C(=O)N[C@@H](Cc2ccccc2)C(=O)N[C@@H](CCC(N)=O)C(=O)N[C@@H](CC(N)=O)C(=O)N[C@H](C(=O)N2CCC[C@H]2C(=O)N[C@@H](CCCN=C(N)N)C(=O)NCC(N)=O)CSS1` [listing 1 of 2 here], the Kb in assay [3] was 1170 nM.

In turn, `NC(=O)CC[C@@H]1NC(=O)[C@H](Cc2ccccc2)NC(=O)[C@H](Cc2ccc(O)cc2)NC(=O)CC2(CCCCC2)SSC[C@@H](C(=O)N2CCC[C@H]2C(=O)N[C@@H](CCCN=C(N)N)C(=O)NCC(N)=O)NC(=O)[C@H](CC(N)=O)NC1=O` [listing 2 of 2 here] returned an Effective dose in assay [1] of 0.34 nM/kg.

`CCC1(CC)CC(=O)N[C@@H](Cc2ccc(O)cc2)C(=O)N[C@H](Cc2ccccc2)C(=O)N[C@@H](CCC(N)=O)C(=O)N[C@H](CC(N)=O)C(=O)N[C@@H](C(=O)N2CCC[C@H]2C(=O)N[C@H](CCCN=C(N)N)C(=O)NCC(N)=O)CSS1`: the Kb in assay [3] is 200 nM; in assay [5] it was 11 nM; in assay [4], 112 nM. In assay [1], this molecule returned an Effective dose of 0.81 nM/kg. Further, in assay [2], the Antidiuretic activity was 0.06 U/mg.

Take `CC1(C)CC(=O)N[C@@H](Cc2ccc(O)cc2)C(=O)N[C@@H](Cc2ccccc2)C(=O)N[C@@H](CCC(N)=O)C(=O)N[C@@H](CC(N)=O)C(=O)N[C@H](C(=O)N2CCC[C@H]2C(=O)N[C@@H](CCCN=C(N)N)C(=O)NCC(N)=O)CSS1` [listing 2 of 2 here]: the Effective dose in assay [1] turned out to be 3.2 nM/kg.

In the case of `CC(C)[C@@H]1NC(=O)[C@H](Cc2ccccc2)NC(=O)[C@H](Cc2ccc(O)cc2)NC(=O)CC(C)(C)SSC[C@@H](C(=O)N2CCC[C@H]2C(=O)N[C@H](CCCN=C(N)N)C(=O)NCC(N)=O)NC(=O)[C@H](CC(N)=O)NC1=O` [listing 2 of 2 here], the Kb in assay [3] is 75.9 nM.

For `CC1(C)CC(=O)N[C@@H](Cc2ccc(O)cc2)C(=O)N[C@H](Cc2ccccc2)C(=O)N[C@@H](CCC(N)=O)C(=O)N[C@H](CC(N)=O)C(=O)N[C@@H](C(=O)N2CCC[C@H]2C(=O)N[C@H](CCCN=C(N)N)C(=O)NCC(N)=O)CSS1`, the Kb in assay [3] is 195 nM; in assay [5], 35.5 nM; in assay [4], 13.5 nM. In assay [1], this molecule returned an Effective dose of 2.5 nM/kg. In assay [2], this molecule came in with an Antidiuretic activity of 5.8 U/mg.

Consider `CCC1(CC)CC(=O)N[C@@H](Cc2ccc(O)cc2)C(=O)N[C@H](Cc2ccccc2)C(=O)N[C@@H](C(C)C)C(=O)N[C@H](CC(N)=O)C(=O)N[C@@H](C(=O)N2CCC[C@H]2C(=O)N[C@H](CCCN=C(N)N)C(=O)NCC(N)=O)CSS1`, for which the Kb in assay [3] was 61.7 nM; in assay [5], 6.61 nM; in assay [4], 51.3 nM. The Effective dose in assay [1] came to 0.35 nM/kg. The Antidiuretic activity in assay [2] amounted to 0.71 U/mg.

With `CC(C)[C@@H]1NC(=O)[C@@H](Cc2ccccc2)NC(=O)[C@H](Cc2ccc(O)cc2)NC(=O)CC(C)(C)SSC[C@H](C(=O)N2CCC[C@H]2C(=O)N[C@@H](CCCN=C(N)N)C(=O)NCC(N)=O)NC(=O)[C@@H](CC(N)=O)NC1=O`, the Kb was 19.1 nM in assay [3], 12 nM in assay [5] and 8.13 nM in assay [4]. This molecule also yielded an Effective dose in assay [1] of 0.84 nM/kg. Also, the Antidiuretic activity in assay [2] came out at 312 U/mg.

`CCC1(CC)CC(=O)N[C@@H](Cc2ccc(O)cc2)C(=O)N[C@@H](Cc2ccccc2)C(=O)N[C@@H](CCC(N)=O)C(=O)N[C@@H](CC(N)=O)C(=O)N[C@H](C(=O)N2CCC[C@H]2C(=O)N[C@@H](CCCN=C(N)N)C(=O)NCC(N)=O)CSS1` [listing 1 of 2 here] gave an Effective dose in assay [1] of 0.32 nM/kg. In assay [2], this molecule had an Antidiuretic activity of 0.38 U/mg.

For `CCC1(CC)CC(=O)N[C@@H](Cc2ccc(O)cc2)C(=O)N[C@@H](Cc2ccccc2)C(=O)N[C@@H](CCC(N)=O)C(=O)N[C@@H](CC(N)=O)C(=O)N[C@H](C(=O)N2CCC[C@H]2C(=O)N[C@@H](CCCN=C(N)N)C(=O)NCC(N)=O)CSS1` [listing 2 of 2 here], the Kb in assay [3] was 69.2 nM; in assay [5], 4.37 nM; in assay [4] it was 50.1 nM.

On to `CC(C)[C@@H]1NC(=O)[C@H](Cc2ccccc2)NC(=O)[C@H](Cc2ccc(O)cc2)NC(=O)CC2(CCCCC2)SSC[C@@H](C(=O)N2CCC[C@H]2C(=O)N[C@H](CCCN=C(N)N)C(=O)NCC(N)=O)NC(=O)[C@H](CC(N)=O)NC1=O` (HELM PEPTIDE1{Y.F.V.N.C.P.[dR].G.[am]}|CHEM1{[O=C(CC1(S[*:2])CCCCC1)[*:1]]}$PEPTIDE1,CHEM1,1:R1-1:R1|PEPTIDE1,CHEM1,5:R3-1:R2$$$V2.0) [listing 2 of 2 here], for which the Kb in assay [3] was 589 nM; in assay [4], 234 nM.

In the case of `NC(=O)CC[C@@H]1NC(=O)[C@H](Cc2ccccc2)NC(=O)[C@H](Cc2ccc(O)cc2)NC(=O)CC2(CCCCC2)SSC[C@@H](C(=O)N2CCC[C@H]2C(=O)N[C@H](CCCN=C(N)N)C(=O)NCC(N)=O)NC(=O)[C@H](CC(N)=O)NC1=O` [listing 2 of 2 here], the Kb was 257 nM in assay [3], 3.02 nM in assay [5] and 107 nM in assay [4].
